Source: patent publication US20240246918A1, “COMPOUNDS AND COMPOSITIONS AS EIF4E INHIBITORS AND THE USES THEREOF” (Ribometrix, Inc., priority 2022, published 2024)

Key:
human eIF4E protein = target: T1, human eIF4E protein (Homo sapiens, UniProt P06730); assay: Biochemical competitive binding assay (TR-FRET competition, EDA-m7GDP-ATTO-647N probe); conditions: read-out: hEIF4E TR-FRET IC50
T1 construct: purchased Novus NBP-45314
Experimental: The potencies of compounds binding to human eIF4E protein were measured using a 384-well time-resolved fluorescence resonance energy transfer (TR-FRET) competition assay. The assay was performed in assay buffer containing 50 mM HTEPES pH 7.5, 100 mM KCl, 0.02% Tween-20, and 0.1 mg/mL bovine serum albumin (BSA). The reaction volume was 10 μL and each reaction contained 4 nM recombinant 6×HIS-tagged human EIF4E protein (Novus, NBP-45314), 5 nM EDA-m7GDP-ATTO-647N (Jena Bioscience, NU-827-647N), 2.5 nM Europium conjugated Anti-6×HIS antibody (PerkinElmer, AD0402) and varying concentrations of compound. The final DMSO concentration was […].
Compounds were prepared using 11-point, 4-fold serial dilutions in DMSO and 100 nL of diluted compounds were transferred to 384-well assay-ready plates. Recombinant human EIF4E protein at 2× final concentration (8 nM) was pre-incubated with Eu-anti-6×HIS antibody at 2× final concentration (5 nM) for 5 minutes, then 5 μL of the protein solution was added to assay-ready plates. The protein/compound mix was incubated for 15 minutes, after which 5 μL of a solution containing EDA-m7GDP-ATTO-647N probe at 2× final concentration (10 nM) was added. After a subsequent 15-minute incubation, time-resolved fluorescence of assay plates was measured using a Clariostar Plus microplate reader (BMG Labtech) and TR-FRET values were calculated by taking a ratio of the 665 to 620 wavelength signals. After normalization to the average of DMSO control and maximum inhibition control wells, concentration-response data were plotted and standard 4-parameter curve fitting (PEI Signals) was utilized to determine IC50 values.

[1] = test system: COLO 205 colorectal tumor cells; assay: Tumor cell viability inhibition assay (CellTiter-Glo 2.0, 72 hours); type: cell-based; conditions: COLO 205 cell viability
Experimental: The effect of compound treatment on COLO 205 tumor cell viability was assessed using cellular ATP quantification methods (Promega CellTiter-Glo® 2.0, G9241), as follows. Test compounds were prepared using 11-point, 4-fold serial dilutions in DMSO and 100 nL of diluted compounds were transferred to 384-well assay-ready plates. COLO 205 (ATCC, CCL-222) colorectal tumor cells were seeded to assay-ready plates in RPMI-1640 medium supplemented with 10% FBS at 1500 cells in a volume of 33.5 microliters per well. After 72 hours of compound treatment, cellular ATP was assessed by CellTiter-Glo® 2.0 Cell Viability Assay method, according to the manufacturer's instructions. Luminescence was measured using a Clariostar Plus microplate reader (BMG Labtech) or equivalent. After normalization to the average of DMSO control and maximum inhibition control wells, concentration-response data were plotted and standard 4-parameter curve fitting (PEI Signals) was utilized to determine IC50

T1 sequence (P06730 whole entry): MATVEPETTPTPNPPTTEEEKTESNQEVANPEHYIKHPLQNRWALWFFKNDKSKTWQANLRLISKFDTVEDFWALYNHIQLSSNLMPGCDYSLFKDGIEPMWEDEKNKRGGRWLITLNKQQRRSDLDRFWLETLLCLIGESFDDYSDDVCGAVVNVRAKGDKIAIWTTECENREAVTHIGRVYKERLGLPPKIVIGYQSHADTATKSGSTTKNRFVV

Row | SMILES | IC50 (human eIF4E protein) | IC50 ([1]; Homo sapiens, COLO 205, 72 h) | IC50 [1]
1 | Cc1cc(-c2cc(Cl)c(=O)[nH]c2OCCn2c(C)nc3c(c2=O)CC(N(C)CC2CC(F)(F)C2)CC3)c2scc(C(=O)O)c2n1 (single isomer, unassigned) [Compound 237] | 0.5 to 5 µM | > 20 µM | 
2 | Cc1cc(-c2cc(Cl)c(=O)[nH]c2OCCn2c(C)nc3c(c2=O)CC(N(C)CC2CC(F)(F)C2)CC3)c2scc(C(=O)O)c2n1 (single isomer, unassigned) [Compound 238] | 0.5 to 5 µM |  | > 20 µM
3 | Cc1cc(-c2cc(Cl)ccc2OCCn2c(C)nc3c(c2=O)CC(N2CC4CC(C2)C4(F)F)CC3)c2scc(C(=O)O)c2n1 (single isomer, unassigned) [Compound 361] | < 0.1 µM | < 5 µM | 
4 | Cc1cc(-c2cc(Cl)ccc2OCCn2c(C)nc3c(c2=O)CC(N2CC4CC(C2)C4(F)F)CC3)c2scc(C(=O)O)c2n1 (single isomer, unassigned) [Compound 375] | < 0.1 µM |  | < 5 µM
5 | CO[C@@H]1CCN([C@H]2CCc3nc(C)n(CCOc4ccc(Cl)cc4-c4cc(C)nc5c(C(=O)O)csc45)c(=O)c3C2)CC1(C)C (single isomer, unassigned) [Compound 377] | < 0.1 µM | < 5 µM | 
6 | CO[C@H]1CCN([C@H]2CCc3nc(C)n(CCOc4ccc(Cl)cc4-c4cc(C)nc5c(C(=O)O)csc45)c(=O)c3C2)CC1(C)C (single isomer, unassigned) [Compound 378] | < 0.1 µM | < 5 µM | 
7 | Cc1cc(-c2cc(Cl)ccc2OCCn2c(C)nc3c(c2=O)CC(N2CCC(OC(F)(F)F)CC2)CC32CC2)c2scc(C(=O)O)c2n1 (single isomer, unassigned) [Compound 379, 7-(5-chloro-2-(2-(2′-methyl-4′-oxo-6′-(4-(trifluoromethoxy)piperidin-1-yl)-6′,7′-dihydro-4′H-spiro[cyclopropane-1,8′-quinazolin]-3′(5′H)-yl)ethoxy)phenyl)-5-methylthieno[3,2-b]pyridine-3-carboxylic acid] | < 0.1 µM | < 5 µM | 
8 | Cc1cc(-c2cc(Cl)ccc2OCCn2c(C)nc3c(c2=O)CC(N2CCC(OC(F)(F)F)CC2)CC32CC2)c2scc(C(=O)O)c2n1 (single isomer, unassigned) [Compound 380, 7-(5-chloro-2-(2-(2′-methyl-4′-oxo-6′-(4-(trifluoromethoxy)piperidin-1-yl)-6′,7′-dihydro-4′H-spiro[cyclopropane-1,8′-quinazolin]-3′(5′H)-yl)ethoxy)phenyl)-5-methylthieno[3,2-b]pyridine-3-carboxylic acid] | < 0.1 µM |  | < 5 µM
9 | Cc1cc(-c2cc(Cl)ccc2OCCn2c(C)nc3c(c2=O)C[C@H](N2CCC[C@H](C(F)(F)F)C2)CC3)c2scc(C(=O)O)c2n1 (single isomer, unassigned) [Compound 381] | < 0.1 µM | < 5 µM | 
10 | Cc1cc(-c2cc(Cl)ccc2OCCn2c(C)nc3c(c2=O)C[C@H](N2CCC[C@@H](C(F)(F)F)C2)CC3)c2scc(C(=O)O)c2n1 (single isomer, unassigned) [Compound 382] | < 0.1 µM | < 5 µM | 
11 | Cc1cc(-c2cc(Cl)ccc2OCCn2c(C)nc3c(c2=O)C[C@@H](N2CCC[C@@H](C(F)(F)F)C2)CC3)c2scc(C(=O)O)c2n1 (single isomer, unassigned) [Compound 383] | < 0.1 µM | 5 to 20 µM | 
12 | Cc1cc(-c2cc(Cl)ccc2OCCn2c(C)nc3c(c2=O)C[C@@H](N2CCC[C@H](C(F)(F)F)C2)CC3)c2scc(C(=O)O)c2n1 (single isomer, unassigned) [Compound 384] | < 0.1 µM | < 5 µM | 
13 | Cc1cc(-c2cc(Cl)ccc2OCCn2c(C)nc3c(c2=O)C[C@H](N2CCC(OC(F)F)CC2)CC3)c2scc(C(=O)O)c2n1 (single isomer, unassigned) [Compound 385] | < 0.1 µM | < 5 µM | 

Next, values leading:

Row | IC50 (human eIF4E protein) | IC50 ([1]; Homo sapiens, COLO 205, 72 h) | IC50 [1] | SMILES
14 | < 0.1 µM | < 5 µM |  | Cc1cc(-c2cc(Cl)ccc2OCCn2c(C)nc3c(c2=O)C[C@@H](N2CCC(OC(F)F)CC2)CC3)c2scc(C(=O)O)c2n1 (single isomer, unassigned) [Compound 360]
15 | < 0.1 µM | < 5 µM |  | [2H]C1(N2CCC(OC(F)(F)F)CC2)CCc2nc(C)n(CCOc3ccc(Cl)cc3-c3cc(C)nc4c(C(=O)O)csc34)c(=O)c2C1 (single isomer, unassigned) [Compound 362]
16 | < 0.1 µM | < 5 µM |  | Cc1cc(-c2cc(Cl)ccc2OCCn2c(C)nc3c(c2=O)CC(N2CC4(CCC(F)(F)CC4)C2)CC3)c2scc(C(=O)NS(C)(=O)=O)c2n1 (single isomer, unassigned) [Compound 363]
17 | < 0.1 µM |  | < 5 µM | Cc1cc(-c2cc(Cl)ccc2OCCn2c(C)nc3c(c2=O)CC(N2CC4(CCC(F)(F)CC4)C2)CC3)c2scc(C(=O)NS(C)(=O)=O)c2n1 (single isomer, unassigned) [Compound 364]
18 | < 0.1 µM | < 5 µM |  | COC1CCN(C2CCc3nc(C)n(CC#Cc4ccc(Cl)cc4-c4ccnc5c(C(=O)O)csc45)c(=O)c3C2)CC1 (single isomer, unassigned) [Compound 365]
19 | < 0.1 µM | 5 to 20 µM |  | CO[C@@H]1CCN([C@@H]2CCc3nc(C)n(CCOc4ccc(Cl)cc4-c4cc(C)nc5c(C(=O)O)csc45)c(=O)c3C2)C[C@@H]1F (single isomer, unassigned) [Compound 366]
20 | < 0.1 µM | < 5 µM |  | CO[C@@H]1CCN([C@H]2CCc3nc(C)n(CCOc4ccc(Cl)cc4-c4cc(C)nc5c(C(=O)O)csc45)c(=O)c3C2)C[C@@H]1F (single isomer, unassigned) [Compound 367]
21 | < 0.1 µM | < 5 µM |  | Cc1cc(-c2cc(Cl)ccc2OCCn2c(C)nc3c(c2=O)C[C@H](N2C[C@@H]4CC(F)(F)C[C@@H]4C2)CC3)c2scc(C(=O)NS(C)(=O)=O)c2n1 (single isomer, unassigned) [Compound 368]
22 | < 0.1 µM |  | < 5 µM | [2H]C1(N2CCC(OC(F)(F)F)CC2)CCc2nc(C)n(CCOc3ccc(Cl)cc3-c3cc(C)nc4c(C(=O)O)csc34)c(=O)c2C1 (single isomer, unassigned) [Compound 370]
23 | < 0.1 µM | < 5 µM |  | COC1CCN([C@H]2Cc3c(nc(C)n(CCOc4ccc(Cl)cc4-c4cc(C)nc5c(C(=O)O)csc45)c3=O)C3(CC3)C2)CC1 (single isomer, unassigned) [Compound 371]
24 | < 0.1 µM | < 5 µM |  | COC1CCN([C@@H]2Cc3c(nc(C)n(CCOc4ccc(Cl)cc4-c4cc(C)nc5c(C(=O)O)csc45)c3=O)C3(CC3)C2)CC1 (single isomer, unassigned) [Compound 372]
25 | < 0.1 µM | < 5 µM |  | Cc1cc(-c2cc(Cl)ccc2OCCn2c(C)nc3c(c2=O)C[C@H](N2CCC(C(F)(F)F)CC2)CC3)c2scc(C(=O)O)c2n1 (single isomer, unassigned) [Compound 373]
26 | < 0.1 µM | < 5 µM |  | Cc1cc(-c2cc(Cl)ccc2OCCn2c(C)nc3c(c2=O)C[C@@H](N2CCC(C(F)(F)F)CC2)CC3)c2scc(C(=O)O)c2n1 (single isomer, unassigned) [Compound 374]
27 | < 0.1 µM | < 5 µM |  | CO[C@@H]1CCN([C@@H]2CCc3nc(C)n(CCOc4ccc(Cl)cc4-c4cc(C)nc5c(C(=O)O)csc45)c(=O)c3C2)CC1(C)C (single isomer, unassigned) [Compound 376]
